Active and inactive are the calls of the source. A value given as a limit tells only on which side of the number the result lay.

Test [1] can be described thus: A cytotoxicity screen of small molecule inhibitors of the PhoP region in Salmonella typhi identified in the primary screen. [Related pubchem assays: 1850, 1864, 1985 ]. Type of test: functional.
Test [2] can be described thus: Luminescence Cell-Based Dose Response to Identify Activators of 5'UTR Stem-Loop Driven Prion Protein mRNA Translation in H4-C Neuroglioblastoma Cells. [Related pubchem assays: 1829 (Project Summary), 1814 (Primary HTS)]. The class given is functional.
Test [3] can be described thus: Luminescence Cell-Based Dose Confirmation to Identify Activators of 5'UTR Stem-Loop Driven Alpha-Synuclein mRNA Translation in H4 Neuroglioblastoma Cells. [Related pubchem assays: 1829 (Project Summary), 1814 (Primary HTS)]. Type of test: functional.
The nature of test [4]: Luminescence Cell-Based Dose Response to Identify Activators of Luciferase Translation or Activity in H4-C Neuroglioblastoma Cells. [Related pubchem assays: 1829 (Project Summary), 1814 (Primary HTS)]. Type of test: functional.
A short description of test [5]: Luminescence Cell-Based Dose Response HTS to Identify Activators of Luciferase Translation or Activity in H4 […] Cells. [Related pubchem assays: 1829 (Project Summary), 1814 (Primary HTS)]. The class given is functional.
The next test has as its system HeLa. Nature of the test: HeLa cell cytotoxicity, dose response, cytotoxicity control, 24 h, cherry-picked samples (AID 504726).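 Further: potency for cytotoxicity as loss of luminescence signal.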 Type of test: functional, cell-based. The note with it: Homo sapiens.
Test [6] has as its target T1, Cytochrome P450 3A4 (Homo sapiens, UniProt P08684). The note with it: Potency.
A further test deals with Large T antigen (Simian virus 40, UniProt P03070). The class given is functional, Betapolyomavirus macacae.
Chain of Large T antigen (P03070 whole entry): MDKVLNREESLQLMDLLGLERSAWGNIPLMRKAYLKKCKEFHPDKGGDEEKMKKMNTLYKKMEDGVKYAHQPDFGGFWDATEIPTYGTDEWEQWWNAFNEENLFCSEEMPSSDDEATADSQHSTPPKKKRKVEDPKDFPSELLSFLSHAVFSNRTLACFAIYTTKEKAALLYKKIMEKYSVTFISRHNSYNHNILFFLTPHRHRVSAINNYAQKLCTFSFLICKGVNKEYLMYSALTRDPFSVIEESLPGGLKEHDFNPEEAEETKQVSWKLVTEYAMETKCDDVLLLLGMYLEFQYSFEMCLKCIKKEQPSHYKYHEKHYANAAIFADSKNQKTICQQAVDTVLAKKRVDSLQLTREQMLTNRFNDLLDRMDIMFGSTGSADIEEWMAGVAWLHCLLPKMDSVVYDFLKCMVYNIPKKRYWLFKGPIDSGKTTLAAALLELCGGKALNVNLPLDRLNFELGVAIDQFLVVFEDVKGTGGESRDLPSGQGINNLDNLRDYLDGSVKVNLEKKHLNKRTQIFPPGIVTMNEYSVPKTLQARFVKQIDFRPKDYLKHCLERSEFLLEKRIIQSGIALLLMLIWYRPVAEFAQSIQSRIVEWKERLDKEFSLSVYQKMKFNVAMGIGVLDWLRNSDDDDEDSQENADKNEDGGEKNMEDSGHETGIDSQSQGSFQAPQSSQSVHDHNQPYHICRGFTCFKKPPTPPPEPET
For test [7], the target named is T1, Cytochrome P450 3A4.
The next test has as its target T2, Cytochrome P450 1A2 (Homo sapiens, UniProt P05177).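 Further: PubChem cytochrome P450 panel assay, CYP1A2 panel member.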
T2 sequence (P05177 whole entry): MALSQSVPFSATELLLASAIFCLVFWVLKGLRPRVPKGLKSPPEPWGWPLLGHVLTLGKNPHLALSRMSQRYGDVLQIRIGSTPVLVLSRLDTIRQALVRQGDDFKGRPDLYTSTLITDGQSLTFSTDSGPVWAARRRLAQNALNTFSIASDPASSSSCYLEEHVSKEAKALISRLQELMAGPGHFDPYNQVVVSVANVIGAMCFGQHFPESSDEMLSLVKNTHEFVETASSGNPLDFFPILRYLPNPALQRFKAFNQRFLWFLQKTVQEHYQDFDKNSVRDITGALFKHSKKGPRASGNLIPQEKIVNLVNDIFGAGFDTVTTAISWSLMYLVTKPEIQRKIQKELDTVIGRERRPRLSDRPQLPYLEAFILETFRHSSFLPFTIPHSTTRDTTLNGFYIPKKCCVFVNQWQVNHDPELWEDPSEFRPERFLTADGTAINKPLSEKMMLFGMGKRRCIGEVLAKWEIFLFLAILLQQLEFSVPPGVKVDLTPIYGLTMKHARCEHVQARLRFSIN

Another test addresses Cytochrome P450 2D6 (Homo sapiens, UniProt P10635).
Another test deals with T3, Bcl-2-like protein 10 (Homo sapiens, UniProt Q9HD36).
T3 sequence (Q9HD36 whole entry): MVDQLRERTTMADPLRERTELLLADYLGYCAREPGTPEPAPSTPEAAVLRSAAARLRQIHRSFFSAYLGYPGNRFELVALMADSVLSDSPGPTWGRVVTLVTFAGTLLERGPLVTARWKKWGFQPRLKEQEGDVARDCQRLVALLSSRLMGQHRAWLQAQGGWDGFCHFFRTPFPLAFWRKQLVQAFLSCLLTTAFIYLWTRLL
Nature of the test: displacers of TR3 peptide from Bcl-B, primary screen, selectivity assay for Bfl-1 inhibitor project, biochemical, fluorescence polarization, FITC-TR3 peptide (AID 748). Background: Fluorescence polarisation rises when a labelled molecule tumbles more slowly, as on binding a larger partner.

Test [8] addresses T4, Estrogen receptor beta (Homo sapiens, UniProt Q92731). Nature of the test: ERβ–SRC-3 coactivator interaction inhibitors, confirmation, orthogonal assay, biochemical, ELISA, streptavidin-HRP readout (AID 1060). A general note: ELISA stands for enzyme-linked immunosorbent assay.
The target of test [9] is T4, Estrogen receptor beta.
A further test addresses Troponin, cardiac muscle (Homo sapiens, UniProt P19429+P45379+P63316). Nature of the test: Fluorescence-based biochemical high throughput dose response assay for activators of the calcium sensitivity of cardiac Regulated Thin Filaments (RTF). [Related pubchem assays (depositor defined):AID493008, AID493018, AID504382, AID504383]. Type of test: protein-complex assay.
Another test deals with H4. Nature of the test: Luminescence Cell-Based Dose Response HTS to Identify Activators of 5'UTR Stem-Loop Driven Prion Protein mRNA Translation in H4 Neuroglioblastoma Cells. [Related pubchem assays: 1829 (Project Summary), 1814 (Primary HTS)]. The class given is functional. Particulars: Homo sapiens.
The target in test [10] is Induced myeloid leukemia cell differentiation protein Mcl-1 (Homo sapiens, UniProt Q07820). The class given is functional.
Chain of Induced myeloid leukemia cell differentiation protein Mcl-1 (Q07820 whole entry): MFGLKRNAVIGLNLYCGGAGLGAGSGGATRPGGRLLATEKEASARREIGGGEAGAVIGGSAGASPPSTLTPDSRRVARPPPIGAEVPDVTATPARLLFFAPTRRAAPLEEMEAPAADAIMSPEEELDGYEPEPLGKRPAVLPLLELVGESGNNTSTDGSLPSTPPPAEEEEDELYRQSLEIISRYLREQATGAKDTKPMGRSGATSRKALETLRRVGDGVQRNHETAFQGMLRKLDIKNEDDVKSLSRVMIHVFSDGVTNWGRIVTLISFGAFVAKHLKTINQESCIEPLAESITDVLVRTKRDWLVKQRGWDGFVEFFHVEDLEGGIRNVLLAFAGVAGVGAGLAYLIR
Test [11] has as its target T5, Mannose-6-phosphate isomerase (Homo sapiens, UniProt P34949).
T5 sequence (P34949 whole entry): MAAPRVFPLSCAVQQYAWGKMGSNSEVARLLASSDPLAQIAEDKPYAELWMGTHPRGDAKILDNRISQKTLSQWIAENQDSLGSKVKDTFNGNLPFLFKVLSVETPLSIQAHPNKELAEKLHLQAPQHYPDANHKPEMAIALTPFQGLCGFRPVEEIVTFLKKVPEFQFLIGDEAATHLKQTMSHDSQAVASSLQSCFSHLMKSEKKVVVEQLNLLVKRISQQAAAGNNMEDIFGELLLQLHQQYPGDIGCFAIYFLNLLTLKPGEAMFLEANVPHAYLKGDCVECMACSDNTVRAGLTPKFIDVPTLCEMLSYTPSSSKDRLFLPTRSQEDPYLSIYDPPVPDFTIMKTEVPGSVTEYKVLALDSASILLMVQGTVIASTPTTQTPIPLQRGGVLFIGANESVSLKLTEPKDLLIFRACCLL
In words: human PMI inhibitors, high substrate, primary screen, biochemical, fluorescence intensity, high mannose 6-phosphate (AID 1220).

The target of test [12] is T6, Rac GTPase-activating protein 1 (Homo sapiens, UniProt Q9H0H5).
T6 sequence (Q9H0H5 whole entry): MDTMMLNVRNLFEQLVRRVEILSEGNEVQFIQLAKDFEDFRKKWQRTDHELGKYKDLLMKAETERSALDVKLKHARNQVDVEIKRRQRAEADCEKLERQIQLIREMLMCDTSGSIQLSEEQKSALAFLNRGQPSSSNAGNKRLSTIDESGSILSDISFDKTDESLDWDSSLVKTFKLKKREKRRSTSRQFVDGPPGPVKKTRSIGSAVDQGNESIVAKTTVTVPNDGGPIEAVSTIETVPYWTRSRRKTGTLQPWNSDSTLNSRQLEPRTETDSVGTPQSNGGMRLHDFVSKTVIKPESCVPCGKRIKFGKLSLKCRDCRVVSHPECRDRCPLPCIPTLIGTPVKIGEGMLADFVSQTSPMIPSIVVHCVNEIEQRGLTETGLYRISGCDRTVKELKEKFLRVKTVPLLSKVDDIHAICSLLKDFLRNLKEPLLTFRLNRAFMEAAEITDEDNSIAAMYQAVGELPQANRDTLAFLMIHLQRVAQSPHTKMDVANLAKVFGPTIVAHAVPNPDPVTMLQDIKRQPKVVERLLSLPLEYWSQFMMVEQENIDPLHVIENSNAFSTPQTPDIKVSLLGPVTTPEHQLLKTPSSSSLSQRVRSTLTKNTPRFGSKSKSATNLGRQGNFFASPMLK
In words: MgcRacGAP GTPase-activating activity inhibitors, confirmation, biochemical, ADP Hunter fluorescence, primary and confirmatory (AID 624330). Type of test: functional.

Test [13] in a line: HeLa cell cytotoxicity, dose response, cytotoxicity control for MgcRacGAP inhibitor project (AID 624300). Type of test: functional.
Test [14] can be described thus: Luminescence Cell-Based Dose Confirmation HTS to Identify Activators of 5'UTR Stem-Loop Driven Alpha-Synuclein mRNA Translation in H4 Neuroglioblastoma Cells. [Related pubchem assays: 1829 (Project Summary), 1814 (Primary HTS)]. Type of test: functional.
Test [15] concerns the target T7, Carboxy-terminal domain RNA polymerase II polypeptide A small phosphatase 1 (Homo sapiens, UniProt Q9GZU7).
T7 sequence (Q9GZU7 whole entry): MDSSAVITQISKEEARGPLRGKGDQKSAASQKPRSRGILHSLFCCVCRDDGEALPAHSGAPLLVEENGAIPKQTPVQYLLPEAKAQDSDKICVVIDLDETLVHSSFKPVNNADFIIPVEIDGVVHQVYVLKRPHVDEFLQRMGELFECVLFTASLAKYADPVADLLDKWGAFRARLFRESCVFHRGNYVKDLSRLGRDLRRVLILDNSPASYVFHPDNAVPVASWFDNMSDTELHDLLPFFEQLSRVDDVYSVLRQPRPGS
Nature of the test: inhibitors of CTDSP1, concentration-response testing, biochemical assay, absorbance-based, actives from ultra-high-throughput screening (AID 540297). Type of test: functional.

The target in test [16] is T5, Mannose-6-phosphate isomerase. In words: PMI enzyme inhibitors, confirmation, biochemical, fluorescence intensity (AID 1535).

T1 sequence (P08684 whole entry): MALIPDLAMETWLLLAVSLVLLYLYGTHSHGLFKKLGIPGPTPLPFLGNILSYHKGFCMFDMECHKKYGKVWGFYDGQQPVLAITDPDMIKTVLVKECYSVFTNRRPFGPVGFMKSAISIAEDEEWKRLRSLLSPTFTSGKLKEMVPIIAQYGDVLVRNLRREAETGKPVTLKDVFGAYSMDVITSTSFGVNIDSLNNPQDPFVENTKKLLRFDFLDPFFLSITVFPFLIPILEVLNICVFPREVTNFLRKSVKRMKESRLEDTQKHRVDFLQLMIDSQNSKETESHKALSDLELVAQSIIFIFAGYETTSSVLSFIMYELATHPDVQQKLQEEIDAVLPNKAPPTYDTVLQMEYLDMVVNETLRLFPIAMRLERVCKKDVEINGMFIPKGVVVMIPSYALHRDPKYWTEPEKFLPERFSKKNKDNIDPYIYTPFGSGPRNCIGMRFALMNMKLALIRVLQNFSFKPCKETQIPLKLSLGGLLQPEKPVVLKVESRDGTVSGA
T4 sequence (Q92731 whole entry): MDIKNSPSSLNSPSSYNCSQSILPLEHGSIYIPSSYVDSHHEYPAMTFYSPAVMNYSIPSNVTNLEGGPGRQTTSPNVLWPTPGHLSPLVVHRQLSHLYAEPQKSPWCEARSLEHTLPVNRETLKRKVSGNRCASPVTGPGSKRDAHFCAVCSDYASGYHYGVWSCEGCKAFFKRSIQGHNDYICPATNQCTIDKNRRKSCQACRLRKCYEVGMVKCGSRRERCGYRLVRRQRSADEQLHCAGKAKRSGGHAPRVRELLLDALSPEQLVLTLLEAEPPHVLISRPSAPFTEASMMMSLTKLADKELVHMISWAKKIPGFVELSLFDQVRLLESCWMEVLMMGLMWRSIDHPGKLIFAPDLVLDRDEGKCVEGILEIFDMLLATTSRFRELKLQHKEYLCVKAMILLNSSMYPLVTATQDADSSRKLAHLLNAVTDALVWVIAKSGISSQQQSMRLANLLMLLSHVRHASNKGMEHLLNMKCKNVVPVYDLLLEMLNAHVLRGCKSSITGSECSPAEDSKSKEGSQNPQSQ
Chain of Cytochrome P450 2D6 (P10635 whole entry): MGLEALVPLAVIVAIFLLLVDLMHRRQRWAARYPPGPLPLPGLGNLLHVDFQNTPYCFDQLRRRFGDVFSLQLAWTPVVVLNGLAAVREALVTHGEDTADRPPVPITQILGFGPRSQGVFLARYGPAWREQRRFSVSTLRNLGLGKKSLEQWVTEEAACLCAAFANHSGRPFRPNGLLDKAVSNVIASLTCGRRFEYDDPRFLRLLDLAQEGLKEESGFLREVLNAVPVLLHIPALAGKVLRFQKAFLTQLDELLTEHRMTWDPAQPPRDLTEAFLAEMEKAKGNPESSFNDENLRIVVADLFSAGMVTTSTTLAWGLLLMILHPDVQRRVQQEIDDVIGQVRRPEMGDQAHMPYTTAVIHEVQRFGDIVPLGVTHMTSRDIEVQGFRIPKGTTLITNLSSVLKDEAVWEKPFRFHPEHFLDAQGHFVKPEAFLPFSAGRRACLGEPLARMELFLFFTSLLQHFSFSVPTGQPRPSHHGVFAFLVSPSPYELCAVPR

In general, EC50 refers to the concentration needed to bring the measured effect to its halfway point. Take `CCc1ccc(NC2=NCCCS2)cc1`: in test [1], the EC50 was > 50 µM (active).

Consider `COc1cccc(COC(=O)Nc2ccccc2F)c1`, for which the EC50 in [2] was 0.301 µM (active); in test [3], 0.456 µM (active); in test [4], 0.344 µM (active); in test [5] it was < 0.1 µM (inconclusive).

For orientation: AC50 means the concentration giving half of the maximal activity seen. For `CC(=O)NC(=NOCc1ccc(Br)cc1)c1nonc1NC(C)=O`, in the test with HeLa, the AC50 is > 350 µM (inactive).

As a reminder, the IC50 is the concentration that gives 50% inhibition. As to `CC(=O)NCCc1c[nH]c2ccc(O)cc12` [ACETYLSEROTONIN], the AC50 on Cytochrome P450 3A4 [6] is 25.1 µM (inconclusive); on Cytochrome P450 3A4 [7] it was 7.94 µM (inconclusive); on Cytochrome P450 1A2, 15.8 µM (inconclusive); at Cytochrome P450 2D6 it was 15.8 µM (inconclusive). For the same compound, the IC50 at Large T antigen is 21.7 µM (active).

As to `CCOc1ccc(C(=O)OCC(=O)NCc2ccco2)cc1OCC`, the IC50 is > 100 µM (inactive) on Bcl-2-like protein 10, 0.113 µM (not active) against Estrogen receptor beta [8] and > 50 µM (not active) against Estrogen receptor beta [9].

With `Cc1ccc(OCc2nnc(NC(=O)c3cccnc3)s2)cc1`, the EC50 in test [1] is > 50 µM (active).

Consider `COc1ccccc1NC(=O)COC(=O)c1cnc(C)cn1`, for which the EC50 on Troponin, cardiac muscle was > 71.5 µM (inactive).

As for `COCCN1CCn2c(nc3cc(NC(=O)NC4CCCCC4)ccc32)C1`, the IC50 on Bcl-2-like protein 10 is > 12.5 µM (inactive).

Regarding `O=C(NCc1ccccc1)c1cccc(COc2ccc(Cl)cc2)c1`, the EC50 is > 12 µM (not active) in test [2]; 0.261 µM (active) in test [3]; > 12 µM (not active) in [4]; > 120 µM (not active) in the test with H4; < 0.1 µM (active) in test [5].

Regarding `CCOC(=O)c1c(C)oc2c1c(CN1CCN(C(=O)OCC)CC1)c(O)c1ccccc12`, the concentration for half-maximal inhibition (IC50) in test [10] was 3.95 µM (active); in test [11] it was > 50 µM (not active).

As for `CC(C)N(C(S)=Nc1cccnc1)c1ccccc1`, in the test on HeLa, the AC50 is > 350 µM (inactive).

By CC50 is commonly meant the concentration giving 50% cytotoxicity. Consider `CN(C)c1ccc(NC(=O)c2sc(SCC(=O)Nc3nccs3)nc2N)cc1`, for which the EC50 in test [2] is 1.28 µM (active); in test [3] it was 0.236 µM (active); in test [4] it was 0.575 µM (active); in test [5], < 0.1 µM (active). For the same compound, in [12], the IC50 was 107 µM (active). Besides, the CC50 in [13] was 100 µM (active).

Take `CCCCCC(=O)NNC(=S)NC(C)=O`: the EC50 in test [1] was > 50 µM (active).

Take `O=C(NCc1nnc(SCC(=O)N2CCCCCC2)o1)c1ccco1`: the EC50 at Troponin, cardiac muscle was > 71.5 µM (inactive).

`CNS(=O)(=O)c1ccc(N/C=C2/C(=O)NC(=O)N(c3ccccc3)C2=O)cc1`: at Troponin, cardiac muscle, the EC50 was > 71.5 µM (inactive).

With `O=c1c(O)c(-c2ccccc2)oc2cc(O)ccc12` [3,7-DIHYDROXYFLAVONE], the AC50 on Cytochrome P450 3A4 [6] was 39.8 µM (inconclusive).

Take `COc1ccc(NC(=O)c2cnn3c(C(F)(F)F)cc(-c4ccco4)nc23)cc1OC`: the IC50 on Bcl-2-like protein 10 is 66.8 µM (inactive).

For the compound `COc1ccccc1-c1nn2c(-c3ccco3)nnc2s1`, the EC50 in [2] is 1.27 µM (active); in [3], 0.613 µM (active); in [14] it was 0.129 µM (active); in test [4] it was 0.431 µM (active); with H4, 14.9 µM (active); in test [5], < 0.1 µM (active). Besides, the IC50 in test [15] is 12 µM (active).

With `CC(C)[C@H](NC(=O)c1ccccc1F)C(=O)NC1CCCCCCC1`, the concentration at half-maximal activity (AC50) with HeLa was 135 µM (active).

On to `CC(C)C1=CC2=CCC3[C@@](C)(CCC[C@@]3(C)C(=O)O)C2CC1` (some centres not stated), for which the AC50 on Cytochrome P450 3A4 [6] was 39.8 µM (inconclusive).

On to `Cc1cnc(/N=c2\ssnc2Cl)cn1`, for which the IC50 in test [16] was > 100 µM (inactive).

Consider `CCN(Cc1ccccc1)S(=O)(=O)c1cc2nc(O)c(O)nc2cc1C`, for which the AC50 with HeLa was > 350 µM (inactive).

For the origin of these results see ChEMBL document CHEMBL1201862, “PubChem BioAssay data set” (2004).
